# From patent publication US7223865B2, “Chromogenic compounds, and use thereof as enzyme substrates” (Biomerieux, priority 2003, dated 2007)
# Key:
# Experiment in all cases: glycine-aminopeptidase activity on gelled medium, Example 10
# Assay type in all cases: cell-based
# [1] = tested on: Burkholderia cepacia (NCTC 10743); set-up: key to growth: ++ means good growth; + means moderate growth; +/− means poor growth; NG means no growth
# Experimental: (§1) A gelled medium comprising this substrate is prepared as follows: 30 mg of the substrate are dissolved (heating) in 10 ml of sterile distilled water. Ten ml of this solution are then added to 90 ml of Columbia agar, kept molten at 50° C.
# (§2) Various strains of microorganisms derived from the NCTC collection (National Collection of Type Cultures, Colindale, UK) were seeded onto the media thus obtained according to the multipoint inoculation described in example 8 above.
# (§3) The colonies formed were examined visually after incubation for 24 h and 48 h. The color and the growth of these colonies were noted.
# [2] = tested on: Enterobacter cloacae (NCTC 11936); set-up: key to growth: ++ means good growth; + means moderate growth; +/− means poor growth; NG means no growth
# Experimental: as §1, §2, §3
# [3] = tested on: Enterococcus faecalis (NCTC 12697); set-up: key to growth: ++ means good growth; + means moderate growth; +/− means poor growth; NG means no growth
# Experimental: as §1, §2, §3
# [4] = tested on: Enterococcus faecium (NCTC 7171); set-up: key to growth: ++ means good growth; + means moderate growth; +/− means poor growth; NG means no growth
# Experimental: as §1, §2, §3
# [5] = tested on: Escherichia coli O157 (NCTC 12079); set-up: key to growth: ++ means good growth; + means moderate growth; +/− means poor growth; NG means no growth
# Experimental: as §1, §2, §3
# [6] = tested on: Klebsiella pneumonia (NCTC 10896); set-up: key to growth: ++ means good growth; + means moderate growth; +/− means poor growth; NG means no growth
# Experimental: as §1, §2, §3
# [7] = tested on: Listeria monocytogenes (NCTC 11994); set-up: key to growth: ++ means good growth; + means moderate growth; +/− means poor growth; NG means no growth
# Experimental: as §1, §2, §3
# [8] = tested on: Pseudomonas aeruginosa (NCTC 10662); set-up: key to growth: ++ means good growth; + means moderate growth; +/− means poor growth; NG means no growth
# Experimental: as §1, §2, §3
# [9] = tested on: Salmonella poona (NCTC 4840); set-up: key to growth: ++ means good growth; + means moderate growth; +/− means poor growth; NG means no growth
# Experimental: as §1, §2, §3
# [10] = tested on: Salmonella typhimurium (NCTC 74); set-up: key to growth: ++ means good growth; + means moderate growth; +/− means poor growth; NG means no growth
# Experimental: as §1, §2, §3
# [11] = tested on: Serratia marcescens (NCTC 10211); set-up: key to growth: ++ means good growth; + means moderate growth; +/− means poor growth; NG means no growth
# Experimental: as §1, §2, §3
# [12] = tested on: Shigella sonnei (NCTC 9774); set-up: key to growth: ++ means good growth; + means moderate growth; +/− means poor growth; NG means no growth
# Experimental: as §1, §2, §3
# [13] = tested on: Staphylococcus aureus (NCTC 11939); set-up: key to growth: ++ means good growth; + means moderate growth; +/− means poor growth; NG means no growth
# Experimental: as §1, §2, §3
# [14] = tested on: Enterococcus faecalis (NCTC 755); set-up: key: ++ means good growth; + means moderate growth; +/− means poor growth; NG means no growth
# Experimental: as §1, §2, §3
# [15] = tested on: Escherichia coli (NCTC 14018); set-up: key: ++ means good growth; + means moderate growth; +/− means poor growth; NG means no growth
# Experimental: as §1, §2, §3
# [16] = tested on: Staphylococcus aureus (NCTC 6571); set-up: key: ++ means good growth; + means moderate growth; +/− means poor growth; NG means no growth
# Experimental: as §1, §2, §3
smiles,measurement,setting,value
"C[n+]1c2ccccc2c(-c2ccc(NC(=O)CN)cc2)c2ccccc21.[Cl-] [G-4-AP-10-MA, glycyl-9-(4-aminophenyl)-10-methylacridine]",color of colonies,[1]; 24 h,Orange
same,growth,[1]; 24 h,++
same,color of colonies,[1]; 48 h,Orange
same,growth,[1]; 48 h,++
same,color of colonies,[2]; 24 h,Orange
same,growth,[2]; 24 h,++
same,color of colonies,[2]; 48 h,Orange
same,growth,[2]; 48 h,++
same,color of colonies,[3]; 24 h,Colorless
same,growth,[3]; 24 h,+
same,color of colonies,[3]; 48 h,Colorless
same,growth,[3]; 48 h,+
same,color of colonies,[4]; 24 h,Colorless
same,growth,[4]; 24 h,+
same,color of colonies,[4]; 48 h,Colorless
same,growth,[4]; 48 h,+
same,color of colonies,[5]; 24 h,Orange
same,growth,[5]; 24 h,++
same,color of colonies,[5]; 48 h,Orange
same,growth,[5]; 48 h,++
same,color of colonies,[6]; 24 h,Orange
same,growth,[6]; 24 h,++
same,color of colonies,[6]; 48 h,Orange
same,growth,[6]; 48 h,++
same,color of colonies,[7]; 24 h,Colorless
same,growth,[7]; 24 h,+
same,color of colonies,[7]; 48 h,Colorless
same,growth,[7]; 48 h,+
same,color of colonies,[8]; 24 h,Pale orange
same,growth,[8]; 24 h,(++)
same,color of colonies,[8]; 48 h,Orange
same,growth,[8]; 48 h,++
same,color of colonies,[9]; 24 h,Orange
same,growth,[9]; 24 h,++
same,color of colonies,[9]; 48 h,Orange
same,growth,[9]; 48 h,++
same,color of colonies,[10]; 24 h,Pale orange
same,growth,[10]; 24 h,(++)
same,color of colonies,[10]; 48 h,Pale orange
same,growth,[10]; 48 h,++
same,color of colonies,[11]; 24 h,Orange
same,growth,[11]; 24 h,++
same,color of colonies,[11]; 48 h,Orange
same,growth,[11]; 48 h,++
same,color of colonies,[12]; 24 h,Orange
same,growth,[12]; 24 h,++
same,color of colonies,[12]; 48 h,Orange
same,growth,[12]; 48 h,++
same,color of colonies,[13]; 24 h,Colorless
same,growth,[13]; 24 h,+
same,color of colonies,[13]; 48 h,Colorless
same,growth,[13]; 48 h,+
same,growth,[14]; 24 h,NG
same,growth,[14]; 48 h,NG
same,growth,[15]; 24 h,NG
same,growth,[15]; 48 h,NG
same,growth,[16]; 24 h,NG
same,growth,[16]; 48 h,NG
